Measured values as given in patent US4734418A, “Quinazoline compounds and antihypertensives” (priority 1984, dated 1988).
Where two headings read alike, the source gives them in different places.

Key:
Rat = assay: Test 2: acute toxicity, rat, oral; assay type: in vivo, male Wister rats; conditions: fourteenth day
Protocol: (§1) The acute toxicity of certain compounds of this invention were studied in the following manner.
(§2) Namely, male ddy-mice of 5 weeks of age and male Wister rats of 8 weeks of age were fasted for 18 hours and used in groups each of which was constituted of 4-5 of mice or rats. The compounds were each dissolved or suspended in a 0.5% methylcellulose solution and administered orally (P.O.). On the fourteenth day after the administration, their toxicity were judged.
(§3) Each numeral set indicates the number of dead animals/the number of teste
(§4) animals. Hyphens (--) indicate that no tests were effected.

Mouse = assay: Test 2: acute toxicity, mouse, oral; assay type: in vivo, male ddy-mice; conditions: fourteenth day
Protocol: as §1, §2, §3, §4

[1] = tested on: Spontaneously Hypertensive Rats; assay: Test 1: antihypertensive effects (systolic tail artery blood pressure) and heart rate in spontaneously hypertensive rats, oral; assay type: in vivo, rat (male, SHR); conditions: for change in vivo at 1 mg/kg: Rattus norvegicus; for Change (%) in heart rate: maximum value
Outline: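 Male SHRs aged 20 weeks or older (350-430 g), with systolic pressure of 180 mmHg or higher, were used in groups of 3-4. Compounds in 0.5% methylcellulose were given orally, mostly at 1 mg/Kg. Systolic tail-artery blood pressure and heart rate were measured together as percent change.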

[2] = solubility in DMSO (NMR not measured); assay type: physicochemical; conditions: HCl salt
[3] = SHR, oral 1 mg/Kg, 1 hour, read-out: Antihypertensive effects, change (%) in blood pressure, 1 hour later
[4] = SHR, oral 1 mg/Kg, 3 hours, read-out: Antihypertensive effects, change (%) in blood pressure, 3 hours later
[5] = SHR, oral 1 mg/Kg, 6 hours, read-out: Antihypertensive effects, change (%) in blood pressure, 6 hours later
[6] = SHR, oral 1 mg/Kg, 24 hours, read-out: Antihypertensive effects, change (%) in blood pressure, 24 hours later
[7] = po, 1 h, read-out: Antihypertensive effects, change (%) in blood pressure, 1 hour later
[8] = po, 3 h, read-out: Antihypertensive effects, change (%) in blood pressure, 3 hours later
[9] = po, 6 h, read-out: Antihypertensive effects, change (%) in blood pressure, 6 hours later
[10] = po, 24 h, read-out: Antihypertensive effects, change (%) in blood pressure, 24 hours later

SMILES | Acute Toxicity, number of dead animals/number of tested animals (Rat; 1 g/Kg P.O.) | Acute Toxicity, number of dead animals/number of tested animals (Rat; 3 g/Kg P.O.) | Acute Toxicity, number of dead animals/number of tested animals (Mouse; 1 g/Kg P.O.) | Acute Toxicity, number of dead animals/number of tested animals (Mouse; 3 g/Kg P.O.) | change in vivo at 1 mg/kg [1, 3] [%] | change in vivo at 1 mg/kg [1, 4] [%] | change in vivo at 1 mg/kg [1, 5] [%] | change in vivo at 1 mg/kg [1, 6] [%] | Change (%) in heart rate ([1]; SHR, oral 1 mg/Kg) | solubility in DMSO [2] | change in vivo at 1 mg/kg [1, 7] [%] | change in vivo at 1 mg/kg [1, 8] [%] | change in vivo at 1 mg/kg [1, 9] [%] | change in vivo at 1 mg/kg [1, 10] [%]
CCn1ccc2nc(N3CCN(c4nc(N)c5cc(OC)c(OC)cc5n4)CC3)ncc2c1=O [Example 1, 4-Amino-6,7-dimethoxy-2-(4-(5,6-dihydro-6-ethyl-5-oxopyrido[4,3-d]pyrimidin-2-yl)piperazino)quinazoline] | 0/5 | 0/5 | 0/5 | 0/5 | -10.7 | -17.3 | -23 | -8.2 | +4.1% | – | – | – | – | –
CCNc1nc(N2CCN(c3nc(N)c4cc(OC)c(OC)cc4n3)CC2)ncc1C(=O)OC.Cl [Example 2, 4-Amino-6,7-dimethoxy-2-(4-(4-ethylamino-5-methoxycarbonylpyrimidine-2-yl)piperazino)quinazoline hydrochloride] | 0/5 | 0/5 | 0/5 | 0/5 | -9 | -23.9 | -38.8 | -16.4 | +18.4% | – | – | – | – | –
COc1cc2nc(N3CCN(c4ncc5c(=O)n(C)ccc5n4)CC3)nc(N)c2cc1OC [Example 4] | 0/5 | 0/5 | 0/5 | 0/5 | -4.4 | -22.1 | -26.5 | -16.7 | +5.7% | – | – | – | – | –
COc1cc2nc(N3CCN(c4ncc5c(n4)CNC5=O)CC3)nc(N)c2cc1OC [Example 22] | – | – | – | – | -1.5 | -10.1 | -17.1 | -4 | +17.7% | insolubility | – | – | – | –
COc1cc2nc(N3CCN(c4ncc5c(n4)CN(C)C5=O)CC3)nc(N)c2cc1OC [Example 24] | 0/5 | 0/5 | 0/5 | 0/5 | -7.2 | -24.8 | -28.6 | -8.7 | +12.0% | – | – | – | – | –
COc1cc2nc(N3CCN(c4ncc5c(n4)N(C)C(=O)C5)CC3)nc(N)c2cc1OC [Example 29] | 0/5 | 0/4 | 0/5 | 0/5 | -5.2 | -23 | -35.2 | -13.1 | +10.1% | – | – | – | – | –
CCOC(=O)c1cnc(N2CCN(c3nc(N)c4cc(OC)c(OC)cc4n3)CC2)nc1C [Example 39] | – | – | 0/5 | – | -4.4 | -12.7 | -7.3 | 1.5 | +2.2% | – | – | – | – | –
COC(=O)c1cnc(N2CCN(c3nc(N)c4cc(OC)c(OC)cc4n3)CC2)nc1NC(C)C [Example 62] | 0/5 | – | 0/5 | – | -1.4 | -24 | -31.3 | -21.2 | +7.6% | – | – | – | – | –
CCNC(=O)c1cnc(N2CCN(c3nc(N)c4cc(OC)c(OC)cc4n3)CC2)nc1NCC [Example 66] | – | – | 0/5 | – | -18 | -23.7 | -28.9 | -16 | +3.8% | – | – | – | – | –
COc1cc2nc(N3CCN(c4ncc5ccccc5n4)CC3)nc(N)c2cc1OC [Example 70] | – | – | 0/4 | – | -7.8 | -17.5 | -23.3 | -4.4 | +13.7% | – | – | – | – | –
CCCC(=O)N1CCCN(c2nc(N)c3cc(OC)c(OC)cc3n2)CC1 [Example E-643, Bunazosin, reference compound] | 2/4 | – | 0/5 | – | -4.8 | -12 | -13.5 | -6.7 | +8.8% | – | – | – | – | –
COc1cc2nc(N3CCN(C(=O)c4ccco4)CC3)nc(N)c2cc1OC [Prazosin, prazosin, reference compound] | 0/5 | 0/3 | 0/5 | 0/5 | – | – | – | – | +8.0% | – | -23.6 | -25.1 | -24.6 | -5
COc1cc2nc(N3CCN(C(=O)C4CCCO4)CC3)nc(N)c2cc1OC (stereo not drawn) [Terazosin, terazosin, reference compound] | – | – | 0/5 | 1/5 | – | – | – | – | +7.2% | – | -22.4 | -25.9 | -23.4 | -5.4
